In patent US11077205B2, “Synthetic compound for improving efficiency of transfection” (Klinikum der Universität München, priority 2016, dated 2021):
The star is where a group is joined. ξ: configuration not given here. Lipoyl(6ξ) = O=C(CCCCC1CCSS1)*

Legend:
BEAS-2B cells = test: In vitro transfection, Metridia luciferase assay in BEAS-2B cells; format: cell-based, human
Description: (§1) Preparation of IVT-mRNA/pDNA containing binary and ternary complexes: Stock solutions of P704 (5 mg/ml) and synthetic compound (1 mg/ml) were prepared in nuclease-free water (NF water) and stored at 4° C. P704 based binary complexes (P704/IVT-mRNA or P704/pDNA) were prepared by mixing equal volumes of diluted P704 stock solution with IVT-mRNA or pDNA solution at the desired concentration in 2× Tyrode's solution. Ternary complexes were generated via two-steps incubation. Briefly, P704 solutions at certain concentration (defined as weight/weight (w/w) ratio between P704 and nucleic acids) in NF-water were mixed with equal volume of synthetic compound solution at specific concentration (defined as N/P ratio, namely the […] between nitrogen residues in synthetic compound and nucleic acids phosphate groups). After 20 min incubation at room temperature (RT), same volumes of nucleic acid (IVT-mRNA or pDNA) solution in NF-water were added to the above P704/synthetic compound solution and mixed gently by pipetting up and down several times. Subsequently, complexes were incubated for another 20 min at RT prior to further use. IVT-mRNA or pDNA solutions in NF-water were complexed with brPEI (25 kDa) at an optimum N/P ratio, the resulting complexes were served as a control polyplex. As for control lipoplex, Lipofectamine® 2000 complexes were prepared according to the manufacturer's instructions using optimum concentration. In order to prepare DOTAP/DOPE liposomes, a lipid film was formed by removing the chloroform solvent in DOTAP/DOPE mixture solution under nitrogen atmosphere. The lipid film is hydrated with NF-water to make the final concentration 10 mM DOTAP/DOPE. The DOTAP/DOPE liposome formulation was formed by mixing 250 μl of pDNA encoding for firefly luciferase and cystic fibrosis transmembrane conductance regulator (fLUC-CFTR pDNA) (150 μg) containing solution and 250 μl diluted DOTAP/DOPE solution (190 μl of 10 mM DOTAP/DOPE liposome and 60 μl NF-water). The mix solution was incubated at RT for 20 min prior to further use.
(§2) In vitro transfection: For the luciferase assay, cells were seeded at a density of 1.8×10^4/well (BEAS-2B) or 3.5×10^4/well (16HBE) in 96-well plates 24 h before transfection to reach 60-80% confluence. Following removal of growth medium, cells were rinsed with DPBS (Gibco, Germany). 170 μl of fresh serum-free OptiMEM (Gibco, Germany) were added per well, and subsequently 30 μl of IVT-mRNA or pDNA containing complexes prepared, as described above, corresponding to 400 ng IVT-mRNA or pDNA per well, were added in replicates of five. After 4 h of incubation at 37° C. in a humidified 5% CO2-containing atmosphere, the transfection medium was replaced with culture medium supplemented with 10% FBS and 1% (v/v) penicillin/streptomycin. Luciferase activity in 50 μl supernatants from transfected cells was assayed with Metridia luciferase substrate (coelenterazine, Invivogen, France) after 24 h using a FLUOstar microplate reader (BMG Labtech, Germany) and its activity is expressed in relative light units (RLU). In all cases each sample was measured on at least two other occasions to ensure the reproducibility of the data.
The same transfection procedure as described above was applied. Luciferase activity was expressed in RLU. The data are given as the mean±standard deviation (SD) of the mean (n>5) in FIGS. 12a to 12k.
(§3) The concentration of P704 in ternary complexes for treatment of BEAS-2B cells was 50 (w/w) and the concentration of P704 in ternary complexes for treatment of 16HBE cells was 63 (w/w). The N/P ratios of the compounds in ternary complexes were as follows:
BEAS-2B cells: Compound 0 (DL) at 30, compound 1 at 20, compounds 3 and 11 at 15, compounds 4 and 6 at 10, compounds 2 and 9 at 5, compounds 5, 7, 8 and 10 at 2.5.
The same transfection procedure as described above was applied. Luciferase activity was expressed in RLU. […]

16HBE cells = test: In vitro transfection, Metridia luciferase assay in 16HBE cells; format: cell-based, human
Description: as §1
as §2, with “data. […]” for “data.”
as §3
16HBE cells: Compound 0 (DL) at 20, compounds 1 and 11 at 15, compounds 2 and 3 at 10, compounds 4, 6, 8, and 9 at 5, compounds 5, 7, and 10 at 2.5.
The same transfection procedure as described above was applied.
The concentration of P704 in ternary complexes was 63 (w/w). The N/P ratio of the compounds in certain ternary complexes was as follows:
16HBE cells: Compound 1, 8, and 11 at 20; compound 0 (DL) and 3 at 10; compound 2 at 7.5; compounds 4, 6, 9, and 10 at 5, compounds 5 and 7 at 2.5. […]

Row | Substance | IVT-mRNA transfection efficiency of P704 ternary complex (in words) (BEAS-2B cells; MetLuc mRNA, P704 63 (w/w), optimum N/P, FIG. 17a) | pDNA transfection efficiency of P704 ternary complex (in words) (BEAS-2B cells; MetLuc pDNA, P704 50 (w/w), optimum N/P, FIG. 14a) | IVT-mRNA transfection efficiency of P704 ternary complex (in words) (16HBE cells; MetLuc mRNA, P704 63 (w/w), optimum N/P, FIG. 17b) | pDNA transfection efficiency of P704 ternary complex (in words) (16HBE cells; MetLuc pDNA, P704 63 (w/w), optimum N/P, FIG. 14b) | pDNA expression relative to compound 3 containing ternary complex (BEAS-2B cells; MetLuc pDNA, FIG. 14a) [times] | pDNA expression compared with compound 3 containing ternary complex (16HBE cells; other days than day 2)
1 | KETWWETWWTEWWTEW-KKKKRRRRRKKKK-GACSERSMNFCG (KETWWETWWTEWWTEWKKKKRRRRRKKKKGACSERSMNFCG) [compound 9] | more superior to other counterparts | highest transfection efficiency | more superior to other counterparts | overwhelming signals |  | 
2 | NH2-VKRKKKPKKRRRRKKWK(DL-lipoic acid)-CONH2 (H-VKRKKKPKKRRRRKKWK(Lipoyl(6ξ))-NH2; SMILES CC(C)[C@H](N)C(=O)N[C@@H](CCCCN)C(=O)N[C@@H](CCCNC(=N)N)C(=O)N[C@@H](CCCCN)C(=O)N[C@@H](CCCCN)C(=O)N[C@@H](CCCCN)C(=O)N1CCC[C@H]1C(=O)N[C@@H](CCCCN)C(=O)N[C@@H](CCCCN)C(=O)N[C@@H](CCCNC(=N)N)C(=O)N[C@@H](CCCNC(=N)N)C(=O)N[C@@H](CCCNC(=N)N)C(=O)N[C@@H](CCCNC(=N)N)C(=O)N[C@@H](CCCCN)C(=O)N[C@@H](CCCCN)C(=O)N[C@@H](Cc1c[nH]c2ccccc12)C(=O)N[C@@H](CCCCNC(=O)CCCCC1CCSS1)C(N)=O) [compound 0 (DL)] |  |  |  |  | ~5 | significantly higher
